± gives the expanded uncertainty stated by the source.
Assay: molar heat capacity at constant volume; wn = mass fraction of the nth substance listed
Conditions: Fluid (supercritical or subcritical phases), Vacuum adiabatic calorimetry, w1 = 0.5001

FC(F)C(F)(F)F [pentafluoroethane] + FCF
Conditions | molar heat capacity at constant volume [J/K/mol]
348 K, 6505 kPa | 75.76 ± 1.5
348 K, 9225 kPa | 72.31 ± 1.5
348 K, 14528 kPa | 69.08 ± 1.4
349 K, 5380 kPa | 96.64 ± 1.9
349 K, 6732 kPa | 76.89 ± 1.6
349 K, 9535 kPa | 72.88 ± 1.5
349 K, 14929 kPa | 70.2 ± 1.4
350 K, 5486 kPa | 95.02 ± 1.9
350 K, 5543 kPa | 91.24 ± 1.8
350 K, 5720 kPa | 84.88 ± 1.7
350 K, 6957 kPa | 76.37 ± 1.5
350 K, 9844 kPa | 72.65 ± 1.5
350 K, 15331 kPa | 69.99 ± 1.4
351 K, 5591 kPa | 91.71 ± 1.8
351 K, 5661 kPa | 90.24 ± 1.8
351 K, 5866 kPa | 81.35 ± 1.7
351 K, 7184 kPa | 75.16 ± 1.5
351 K, 10153 kPa | 72.45 ± 1.5
351 K, 15729 kPa | 68.92 ± 1.4
352 K, 5697 kPa | 89.08 ± 1.8
352 K, 5778 kPa | 87.68 ± 1.8
352 K, 5877 kPa | 87.6 ± 1.8
352 K, 6013 kPa | 80.15 ± 1.6
352 K, 7411 kPa | 74.15 ± 1.5
352 K, 10462 kPa | 72.57 ± 1.5
352 K, 16128 kPa | 68.79 ± 1.4
353 K, 5802 kPa | 88.36 ± 1.8
353 K, 5898 kPa | 87.13 ± 1.8
353 K, 6010 kPa | 87.42 ± 1.8
353 K, 6163 kPa | 80.29 ± 1.6
353 K, 7640 kPa | 75.09 ± 1.5
353 K, 10771 kPa | 72.4 ± 1.5
353 K, 16529 kPa | 69.17 ± 1.4
354 K, 5907 kPa | 87.38 ± 1.8
354 K, 6017 kPa | 86.01 ± 1.7
354 K, 6144 kPa | 86.89 ± 1.7
354 K, 6312 kPa | 80.47 ± 1.6
354 K, 7867 kPa | 74.78 ± 1.5
354 K, 11082 kPa | 72.54 ± 1.5
354 K, 16929 kPa | 68.92 ± 1.4
355 K, 6013 kPa | 85.59 ± 1.7
355 K, 6136 kPa | 84.29 ± 1.7
355 K, 6277 kPa | 85.22 ± 1.7
355 K, 6460 kPa | 78.25 ± 1.6
355 K, 8099 kPa | 73.81 ± 1.5
355 K, 11393 kPa | 71.62 ± 1.4
355 K, 17330 kPa | 68.05 ± 1.4
356 K, 6119 kPa | 85.68 ± 1.7
356 K, 6256 kPa | 84 ± 1.7
356 K, 6409 kPa | 84.29 ± 1.7
356 K, 6610 kPa | 77.58 ± 1.6
356 K, 8331 kPa | 73.96 ± 1.5
356 K, 11703 kPa | 71.68 ± 1.4
356 K, 17728 kPa | 68.48 ± 1.4
357 K, 6227 kPa | 86.16 ± 1.7
357 K, 6375 kPa | 83.21 ± 1.7
357 K, 6544 kPa | 84.6 ± 1.7
357 K, 6762 kPa | 78.59 ± 1.6
357 K, 8563 kPa | 73.79 ± 1.5
357 K, 12015 kPa | 72.2 ± 1.5
357 K, 18129 kPa | 68.93 ± 1.4
358 K, 6332 kPa | 84.37 ± 1.7
358 K, 6496 kPa | 82.34 ± 1.7
358 K, 6679 kPa | 84.32 ± 1.7
358 K, 6913 kPa | 78.26 ± 1.6
358 K, 8795 kPa | 73.5 ± 1.5
358 K, 12328 kPa | 72.12 ± 1.5
358 K, 18529 kPa | 68.62 ± 1.4
359 K, 6438 kPa | 82.91 ± 1.7
359 K, 6616 kPa | 81.68 ± 1.6
359 K, 6814 kPa | 82.54 ± 1.7
359 K, 7064 kPa | 76.43 ± 1.5
359 K, 9028 kPa | 72.9 ± 1.5
359 K, 12639 kPa | 71.57 ± 1.4
359 K, 18928 kPa | 68.27 ± 1.4
360 K, 6544 kPa | 82.44 ± 1.7
360 K, 6737 kPa | 80.97 ± 1.6
360 K, 6948 kPa | 82 ± 1.7
360 K, 7219 kPa | 76.78 ± 1.6
360 K, 9258 kPa | 72.64 ± 1.5
360 K, 12952 kPa | 70.73 ± 1.4
361 K, 6650 kPa | 82.84 ± 1.7
361 K, 6858 kPa | 80.53 ± 1.6
361 K, 7085 kPa | 81.72 ± 1.6
361 K, 7368 kPa | 77.24 ± 1.6
361 K, 9493 kPa | 73.35 ± 1.5
361 K, 13265 kPa | 71.22 ± 1.4
362 K, 6758 kPa | 82.74 ± 1.7
362 K, 6980 kPa | 80.56 ± 1.6
362 K, 7222 kPa | 81.91 ± 1.6
362 K, 7523 kPa | 75.41 ± 1.5
362 K, 9726 kPa | 73.82 ± 1.5
362 K, 13581 kPa | 70.53 ± 1.4
363 K, 6864 kPa | 81.25 ± 1.6
363 K, 7101 kPa | 80.13 ± 1.6
363 K, 7357 kPa | 81.64 ± 1.6
363 K, 7676 kPa | 75.63 ± 1.5
363 K, 9958 kPa | 73.52 ± 1.5

Reference: the NIST ThermoML archive (doi:10.1021/je0501843)
